One experiment has as its system microbial hyaluronidase. It is filed as biochemical, Streptomyces actinocidus. The settings on record: for effect on activity of microbial hyaluronidase: 10^−3-10^−4 M; for effect on hyaluronidase / inhibition of hyaluronidase activity: 10^−2 M; for inhibition of activity of microbial hyaluronidase: 10^−3 M.
The subject of experiment [1] is hyaluronidase derived from Stm. Hyalurolyticus. The note with it: 10^−3-10^−4 M; Ohya 1970; cited from earlier work.

Structures are written as SMILES. Read-outs that look alike come from different tables or passages of the source.

On to `[Cl-].[Na+]` [NaCl], for which the “Hyaluronidase activity (%)” value with microbial hyaluronidase (reagent or salt 10^−2 M), in the experiment on microbial hyaluronidase (reagent or salt 10^−3 M) and in the experiment with microbial hyaluronidase (reagent or salt 10^−4 M) was 100% throughout.
In the case of `[N-]=[N+]=[N-].[Na+]` [Na3N], the “Hyaluronidase activity (%)” value in the experiment on microbial hyaluronidase (reagent or salt 10^−2 M), in the experiment on microbial hyaluronidase (reagent or salt 10^−3 M) and with microbial hyaluronidase (reagent or salt 10^−4 M) was 100% throughout.
For the compound `[Cl-].[K+]` [KCl], the “Hyaluronidase activity (%)” value with microbial hyaluronidase (reagent or salt 10^−2 M), in the experiment on microbial hyaluronidase (reagent or salt 10^−3 M) and with microbial hyaluronidase (reagent or salt 10^−4 M) was 100% throughout.
Take `O=S(=O)([O-])[O-].[Zn+2]` [ZnSO4]: the “Hyaluronidase activity (%)” value with microbial hyaluronidase (reagent or salt 10^−2 M), in the experiment with microbial hyaluronidase (reagent or salt 10^−3 M) and in the experiment on microbial hyaluronidase (reagent or salt 10^−4 M) was 100% in each case.
For the compound `[Cl][Mn][Cl]` [MnCl2], the “effect on hyaluronidase derived from Stm. Hyalurolyticus” value (“effect on hyaluronidase derived” below) in experiment [1] is listed as “inhibit”. The “effect on activity of microbial hyaluronidase” value with microbial hyaluronidase was “did not affect”. Besides, the “Hyaluronidase activity (%)” value in the experiment with microbial hyaluronidase (reagent or salt 10^−2 M), with microbial hyaluronidase (reagent or salt 10^−3 M) and with microbial hyaluronidase (reagent or salt 10^−4 M) was 100% each time.
As to `O=C(O)c1cc[c]([Hg][Cl])cc1` [para-Chloromercury-benzoate], the “effect on hyaluronidase derived” value in experiment [1] is on record as “inhibit”. Further, the “effect on hyaluronidase” value with microbial hyaluronidase was “partially inhibited”. The “effect on activity of microbial hyaluronidase” value with microbial hyaluronidase was “did not affect”. The “Hyaluronidase activity (%)” value in the experiment with microbial hyaluronidase (reagent or salt 10^−2 M) worked out at 80%; in the experiment on microbial hyaluronidase (reagent or salt 10^−3 M), 100%; in the experiment on microbial hyaluronidase (reagent or salt 10^−4 M), 100%.
On to `O=[N+]([O-])[O-].[Ag+]` [AgNO3], for which the “Hyaluronidase activity (%)” value with microbial hyaluronidase (reagent or salt 10^−2 M), in the experiment with microbial hyaluronidase (reagent or salt 10^−3 M) and in the experiment on microbial hyaluronidase (reagent or salt 10^−4 M) was 100% in each case.
For `[Ca+2].[Cl-].[Cl-]` [CaCl2], the “Hyaluronidase activity (%)” value in the experiment with microbial hyaluronidase (reagent or salt 10^−2 M), with microbial hyaluronidase (reagent or salt 10^−3 M) and in the experiment on microbial hyaluronidase (reagent or salt 10^−4 M) was 100% throughout.
Turning to `[Cl][Fe]([Cl])[Cl]` [FeCl3], the “inhibition of hyaluronidase activity” value in the experiment with microbial hyaluronidase was found to be 65%. Further, the “inhibition of activity of microbial hyaluronidase” value in the experiment on microbial hyaluronidase is recorded as 25%. Moreover, the “Hyaluronidase activity (%)” value turned out to be 35% in the experiment on microbial hyaluronidase (reagent or salt 10^−2 M), 85% in the experiment on microbial hyaluronidase (reagent or salt 10^−3 M) and 100% in the experiment with microbial hyaluronidase (reagent or salt 10^−4 M).
For `O=S(=O)([O-])[O-].[Cu+2]` [CuSO4], the “inhibition of hyaluronidase activity” value in the experiment with microbial hyaluronidase was found to be 56%. Further, the “inhibition of activity of microbial hyaluronidase” value with microbial hyaluronidase came to 25%. Also, the “Hyaluronidase activity (%)” value in the experiment with microbial hyaluronidase (reagent or salt 10^−2 M) is 44%; in the experiment on microbial hyaluronidase (reagent or salt 10^−3 M) it was 85%; with microbial hyaluronidase (reagent or salt 10^−4 M) it was 100%.
Take `OCCS` [beta-Mercaptoethanol]: the “effect on hyaluronidase” value in the experiment on microbial hyaluronidase was “completely inhibited”. For the same compound, the “Hyaluronidase activity (%)” value in the experiment on microbial hyaluronidase (reagent or salt 10^−2 M) was determined as 0%; in the experiment with microbial hyaluronidase (reagent or salt 10^−3 M), 65%; in the experiment with microbial hyaluronidase (reagent or salt 10^−4 M) it was 100%.
Regarding `[Cl-].[Cl-].[Co+2]` [CoCl2], in the experiment on microbial hyaluronidase, the “Hyaluronidase activity (%)” value turned out to be 100%.
As for `[Hg+2]` [Hg^2+], the “effect on hyaluronidase derived” value in experiment [1] was “inhibit”.
As to `O=C(O)CN(CCN(CC(=O)O)CC(=O)O)CC(=O)O` [EDTA], the “Hyaluronidase activity (%)” value in the experiment with microbial hyaluronidase (reagent or salt 10^−2 M) was determined as 95%; in the experiment on microbial hyaluronidase (reagent or salt 10^−3 M), 100%; in the experiment with microbial hyaluronidase (reagent or salt 10^−4 M) it was 100%.
Consider `O=S(=O)([O-])[O-].[Fe+2]` [FeSO4], for which the “Hyaluronidase activity (%)” value in the experiment with microbial hyaluronidase (reagent or salt 10^−2 M), in the experiment on microbial hyaluronidase (reagent or salt 10^−3 M) and in the experiment with microbial hyaluronidase (reagent or salt 10^−4 M) was 100% in each case.
For the compound `O=S(=O)([O-])[O-].[Li+].[Li+]` [LiSO4], the “Hyaluronidase activity (%)” value with microbial hyaluronidase (reagent or salt 10^−2 M), in the experiment on microbial hyaluronidase (reagent or salt 10^−3 M) and in the experiment with microbial hyaluronidase (reagent or salt 10^−4 M) was 100% in each case.
Consider `II` [I2], for which the “Hyaluronidase activity (%)” value with microbial hyaluronidase (reagent or salt 10^−2 M) is 0%; in the experiment on microbial hyaluronidase (reagent or salt 10^−3 M), 12%.
